This note sets out measurements from ChEMBL document CHEMBL3612000, “Synthesis, leishmanicidal, trypanocidal and cytotoxic activity of quinoline-hydrazone hybrids” (Eur J Med Chem, 2015).

A word on the inhibition: it is the change of the read-out against control, counted positive when it falls. In general, EC50 refers to the midpoint of the concentration-response curve. As usually defined, the IC50 is the concentration needed to halve the response being measured. Read a low IC50 as higher potency.

Series [1] has as its system Leishmania panamensis. Kind of series: Leishmanicidal activity against intracellular amastigotes of Leishmania (Viannia) panamensis MHOM/CO/87/UA140pIR-GFP infected in human U937 cells assessed as decrease of intracellular parasite load at 5 ug/ml after 72 hrs. Format: functional. Particulars: U-937, 72 h.
The test system of series [2] is Leishmania panamensis. Kind of series: Leishmanicidal activity against intracellular amastigotes of Leishmania (Viannia) panamensis MHOM/CO/87/UA140pIR-GFP infected in human U937 cells assessed as decrease of intracellular parasite load after 72 hrs. The series is classed as functional, organism-based, U-937.
Series [3] can be described thus: (§1) Cytotoxicity against human U937 cells assessed as cell viability after 72 hrs by MTT assay. The settings on record: U937 cells, read-out: LC50. The series is classed as cell-based, U-937. A general note: Tetrazolium assays rely on reduction of a dye to a coloured formazan, in cell work by metabolically active cells.
The nature of series [4]: Selectivity index, ratio of LC50 for human U937 cells to EC50 for intracellular amastigotes of Leishmania (Viannia) panamensis MHOM/CO/87/UA140pIR-GFP. The series is classed as toxicity, cell-based, U-937.
A further series concerns Leishmania major. In words: Antileishmanial activity against Leishmania major. The series is classed as functional, organism-based.
The test system of series [5] is Trypanosoma cruzi. Kind of series: Trypanocidal activity against intracellular amastigotes of Trypanosoma cruzi Tulahuen infected in human U937 cells assessed as reduction of viability of intracellular amastigotes by measuring beta-galactosidase activity at 20 ug/ml after 72 hrs by spectrophotometry analysis. Format: functional. Particulars: U-937, 72 h.
For series [6], the system named is Leishmania panamensis. Kind of series: Leishmanicidal activity against intracellular amastigotes of Leishmania (Viannia) panamensis MHOM/CO/87/UA140pIR-GFP infected in human U937 cells assessed as decrease of intracellular parasite load at 10 ug/ml after 72 hrs. The series is classed as functional.
Series [7] has as its system Leishmania panamensis. Kind of series: Leishmanicidal activity against intracellular amastigotes of Leishmania (Viannia) panamensis MHOM/CO/87/UA140pIR-GFP infected in human U937 cells assessed as decrease of intracellular parasite load at 20 ug/ml after 72 hrs. Format: functional. Particulars: U-937, 72 h.
Series [8] deals with Trypanosoma cruzi. In words: Trypanocidal activity against intracellular amastigotes of Trypanosoma cruzi Tulahuen infected in human U937 cells assessed as reduction of viability of intracellular amastigotes by measuring beta-galactosidase activity after 72 hrs by spectrophotometry analysis. The series is classed as functional, organism-based. The settings on record: U-937, 72 h.

Series [9] is described as follows: Selectivity index, ratio of LC50 for human U937 cells to EC50 for intracellular amastigotes of Trypanosoma cruzi Tulahuen. Format: toxicity, cell-based, U-937.
Series [10] has as its system Trypanosoma cruzi. In words: Trypanocidal activity against intracellular amastigotes of Trypanosoma cruzi Tulahuen infected in human U937 cells assessed as reduction of viability of intracellular amastigotes by measuring beta-galactosidase activity at 5 ug/ml after 72 hrs by spectrophotometry analysis. Format: functional. The settings on record: U-937, 72 h.
The subject of series [11] is Trypanosoma cruzi. In words: Trypanocidal activity against intracellular amastigotes of Trypanosoma cruzi Tulahuen infected in human U937 cells assessed as reduction of viability of intracellular amastigotes by measuring beta-galactosidase activity at 10 ug/ml after 72 hrs by spectrophotometry analysis. Format: functional. Particulars: U-937, 72 h.
In the next series the test system is U-937. The description is as §1. The series is classed as cell-based. Particulars: u-937, 72 h, read-out: LC50 (the source's name).
In series [12] the test system is Leishmania panamensis. Kind of series: Leishmanicidal activity against intracellular amastigotes of Leishmania (Viannia) panamensis MHOM/CO/87/UA140pIR-GFP infected in human U937 cells assessed as decrease of intracellular parasite load at 0.05 ug/ml after 72 hrs. Particulars: U-937, 72 h. The series is classed as functional.
Series [13] deals with Leishmania panamensis. Kind of series: Leishmanicidal activity against intracellular amastigotes of Leishmania (Viannia) panamensis MHOM/CO/87/UA140pIR-GFP infected in human U937 cells assessed as decrease of intracellular parasite load at 1 ug/ml after 72 hrs. Format: functional. Particulars: U-937, 72 h.
[14] abbreviates: Leishmania panamensis, MHOM/CO/87/UA140pIR-GFP, U-937, 72 h, read-out: EC50.

In brackets after ≈: the same amount, converted by molar mass.

As to `O=C(N/N=C/c1ccc(O)cc1O)c1nccc2ccccc12`, the inhibition at 5 µg/mL in the series on Leishmania panamensis [1] was 62.6%. Besides, the EC50 in the series on Leishmania panamensis [2] (setting [14]) was determined as 3.4 µg/mL (≈ 11.1 µM). Besides, the CC50 at 72 h in series [3] was found to be 28.6 µM. In addition, the selectivity ratio in [4] turned out to be 2.6.
In the series on Leishmania major, `CCN(CC)NC(=O)c1ccc(OCc2ccccc2)cc1` yielded an IC50 of 21 µM.
Regarding `O=C(N/N=C/c1cccc(O)c1O)c1ccnc2ccccc12`, the inhibition at 20 µg/mL in the series on Trypanosoma cruzi [5] amounted to 27.4%. In addition, the CC50 at 72 h in series [3] was 47.5 µM. The inhibition at 10 µg/mL in the series on Leishmania panamensis [6] (U-937, 72 h) was 47.4%.
As to `O=C(N/N=C/c1cccc(O)c1O)c1ccc2ccccc2n1`, the inhibition at 20 µg/mL in the series with Leishmania panamensis [7] worked out at 75.7%; in the series on Trypanosoma cruzi [5], 31%. Also, the EC50 with Leishmania panamensis [2] (setting [14]) amounted to 6.5 µg/mL (≈ 21.2 µM). In addition, the CC50 at 72 h in [3] was determined as 99.6 µM. For the same compound, the selectivity ratio in [4] is 4.7.
“MEGLUMINE ANTIMONATE [listing 1 of 2 here]”: the inhibition with Leishmania panamensis [6] (U-937) was found to be 79.4%.
In the case of `O=C(N/N=C/c1ccccc1O)c1ccc2ccccc2n1`, the inhibition at 20 µg/mL in the series on Leishmania panamensis [7] stood at 16.8%. The 50% effective concentration (EC50) in the series on Trypanosoma cruzi [8] stood at 1.4 µg/mL (≈ 4.81 µM). Besides, in [9], the selectivity ratio came to 11.6. Besides, the CC50 at 72 h in [3] stood at 56 µM. Besides, the inhibition at 5 µg/mL in the series on Trypanosoma cruzi [10] came out at 50.4%.
As for `O=C(N/N=C/c1ccc(O)cc1O)c1ccnc2ccccc12`, the half-maximal effective concentration (EC50) in the series on Trypanosoma cruzi [8] was 20.8 µg/mL (≈ 67.7 µM). Further, the selectivity ratio in [9] came to 0.5. Moreover, the CC50 at 72 h in series [3] came to 34.5 µM. Besides, in the series with Trypanosoma cruzi [11], the inhibition at 10 µg/mL was 27.7%.
Take “MEGLUMINE ANTIMONATE [listing 2 of 2 here]”: the EC50 with Leishmania panamensis [2] (u-937) is 6.3 µg/mL. For the same compound, the CC50 in the series with U-937 is 6 µM. The Ratio in [4] (u-937) stood at 78.6.
`O=C(N/N=C/c1ccc(O)c(O)c1O)c1ccc2ccccc2n1`: the values for the inhibition at 20 µg/mL in the series on Leishmania panamensis [7] and in the series on Trypanosoma cruzi [5] were 68.2% and 36.1%, respectively. In the series on Leishmania panamensis [2] (setting [14]), the EC50 came out at 15.4 µg/mL (≈ 47.6 µM). Moreover, in series [3], the CC50 at 72 h came to 221 µM. For the same compound, in series [4], the selectivity ratio turned out to be 4.6.
`C[C@@H]1[C@H](O)[C@@H](C)/C=C/C=C/C=C/C=C/C=C/C=C/C=C/[C@H](O[C@@H]2O[C@H](C)[C@@H](O)[C@H](N)[C@@H]2O)C[C@@H]2O[C@](O)(C[C@@H](O)C[C@@H](O)[C@H](O)CC[C@@H](O)C[C@@H](O)CC(=O)O[C@H]1C)C[C@H](O)[C@H]2C(=O)O` [AMPHOTERICIN B]: the inhibition at 0.05 µg/mL in the series on Leishmania panamensis [12] was 76%. Further, the CC50 at 72 h in series [3] amounted to 45.6 µM. The selectivity ratio in [4] is 1050.
In the case of `O=C(N/N=C/c1cc(O)ccc1O)c1ccc2ccccc2n1`, the inhibition at 20 µg/mL in the series on Leishmania panamensis [7] amounted to 64%; in the series on Trypanosoma cruzi [5] it was 24%. For the same compound, the concentration for a half-maximal effect (EC50) in the series on Leishmania panamensis [2] (setting [14]) was 37.2 µg/mL (≈ 121 µM). Moreover, in series [3], the CC50 at 72 h came to 159 µM. The selectivity ratio in series [4] was 2.8.
`O=C(N/N=C/c1cc(O)ccc1O)c1ccnc2ccccc12`: the inhibition at 20 µg/mL stood at 26.1% in the series on Leishmania panamensis [7] and 20.7% in the series on Trypanosoma cruzi [5]. The CC50 at 72 h in series [3] was greater than 651 µM.
`O=C(N/N=C/c1ccc(O)cc1O)c1ccc2ccccc2n1`: the EC50 stood at 6.6 µg/mL (≈ 21.5 µM) with Trypanosoma cruzi [8] and 0.8 µg/mL (≈ 2.6 µM) in the series on Leishmania panamensis [2] (setting [14]). Further, the results for the selectivity ratio in [9] and in [4] were 0.5 and 4.5, respectively. The inhibition at 1 µg/mL in the series on Leishmania panamensis [13] came to 64.7%. Also, in [3], the CC50 at 72 h was 11.7 µM. Also, the inhibition at 5 µg/mL in the series with Trypanosoma cruzi [10] was 41.5%.
For the compound `O=C(N/N=C/c1ccc(O)c(O)c1O)c1ccnc2ccccc12`, the inhibition at 20 µg/mL in the series on Leishmania panamensis [7] was 21.3%; in the series on Trypanosoma cruzi [5] it was 15.7%. For the same compound, the CC50 at 72 h in [3] came to 347 µM.
As for `O=C(Cn1ccnc1[N+](=O)[O-])NCc1ccccc1` [BENZNIDAZOLE], in the series on Trypanosoma cruzi [8], the 50% effective concentration (EC50) is 10.5 µg/mL (≈ 40.3 µM). Besides, in [9], the selectivity ratio was 17. Also, the inhibition at 20 µg/mL with Trypanosoma cruzi [5] is 87.6%.
